# Where two headings read alike, the source gives them in different places.
# How the values were obtained:
# [1] = tested on: mitochondrial ETC; experiment: P. falciparum oxygen consumption rate (OCR) assay (Seahorse XFe96); format: cell-based, Plasmodium falciparum; conditions: compounds 5 μM
# Procedure: To provide further evidence to support the cyclopropyl carboxamide series targeting cyt b, an oxygen consumption rate (OCR) assay was performed using a Seahorse XFe96 Flux Analyzer. The primary role of the mitochondria ETC is to produce ATP oxidative phosphorylation, and thus the oxygen consumption directly quantifies mitochondrial ETC activity. In this assay, malate, which is a substrate of malate quinone dehydrogenase (MQD), was added to provide a base line of oxygen consumption at approximately 50 pmol/min (Fig. 4). […] Finally, NaN3 was added to inhibit complex IV to bring the OCR back to basal levels.
# Fig. 4 P. falciparum oxygen consumption rate (OCR) assay. Data represent the means and SDs of 3 technical replicates. Time points and reagent injections were as follows, 1. First 5 timepoints measured the basal level of malate-dependent OCR; 2. Compounds (5 μM) were injected independently (indicated by arrow), and OCR measured for 8-timepoints; 3. TMPD (a cytochrome c electron donor) was injected, and OCR measured for 5 time points; 4. NaN3 (a complex IV inhibitor) was then added, and OCR measured for 5 time points.
# ETC Biosensor Assay. This assay was performed as previously described. Briefly, 3 × 10^8 trophozoite infected RBCs were purified using the SuperMACS II separator (Miltenyi Biotec, Germany). The trophozoite-stage parasites were released from erythrocytes by treating them with 0.05 % (w/v) pre-warmed saponin in phosphate-buffered saline (PBS) at 37 °C for 3 min. The cells were washed with pre-warmed PBS, three times. […] The cells were measured for oxygen consumption rate (OCR) using Seahorse XFe96 flux analyzer (Agilent). The OCR was assessed for five cycles of 20 s mixing, 1 min waiting, 2.5 min measuring to establish baseline OCR before any substrate injections, for eight cycles of 20 s mixing, 1 min waiting followed by 2.5 min measuring after inhibitor injection from port A and for five cycles of 20 s mixing 1 min waiting, 2.5 min measuring after TMPD, and NaN3, injections.
# [2] = tested on: P. falciparum 3D7 parasites; experiment: P. falciparum 3D7 asexual stage LDH assay (72 h); format: cell-based, Plasmodium falciparum; conditions: Plasmodium falciparum, read-out: Pf 3D7 EC50 (SD)
# In short: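 Asexual P. falciparum 3D7 parasites were grown for 72 h over a 10-point, 3-fold series starting at 1 μM in 0.1% DMSO, with 100 nM chloroquine as negative growth control. After freeze-thaw, parasite LDH was read at 650 nm, and EC50 came from a variable-slope sigmoidal fit.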
# [3] = tested on: Pf SB1-A6 strain; set-up: method as in Nguyen, Dans et al. [8]; conditions: known drug controls; ref Nguyen, Dans et al. [8]; cited from earlier work
# [4] = tested on: Pf Dd2 expressing ScDHODH; set-up: method as in Nguyen, Dans et al. [8]; conditions: known drug controls; ref Nguyen, Dans et al. [8]; cited from earlier work
# [5] = tested on: Pf Dd2 parental line; conditions: known drug controls; ref Nguyen, Dans et al. [8]; cited from earlier work
# [6] = tested on: W466-resistant populations; experiment: 72 h growth assay against W466-resistant populations; format: cell-based, Plasmodium falciparum; conditions: Plasmodium falciparum
# From the text: To determine the mechanism of action of the cyclopropyl carboxamide series, a forward genetic resistance study was undertaken on the two hit compounds W466 (1) and W499 (2).
# The structures of W466 (1) and W499 (2) are slightly different although they appear to belong to the same structural class. To confirm if W466 (1) and W499 (2) may have the same molecular target, W466 (1) and W499 (2) were each evaluated for cross resistance against their respective resistant populations from the pulsed forward genetic study (Fig. 2).
# [7] = tested on: W499-resistant populations; experiment: microbe, parasite or virus in culture; format: cell-based, Plasmodium falciparum; conditions: for EC50: Plasmodium falciparum
# From the text: To confirm if W466 (1) and W499 (2) may have the same molecular target, W466 (1) and W499 (2) were each evaluated for cross resistance against their respective resistant populations from the pulsed forward genetic study (Fig. 2).
# [8] = tested on: ring-stage P. falciparum parasites; experiment: Asexual stage of arrest assay; format: cell-based, Plasmodium falciparum; conditions: 10 times EC50, sampled every 12 h for 48 h
# Procedure: Characterization of asexual stage phenotype and rate of asexual kill is important in determining the downstream application and TCP of an antimalarial series. […] Parasites were sampled every 12 h for 48 h, to prepare Giemsa-stained blood smears for analysis by microscopy. Parasitemia of each sample was measured by flow cytometry using SYBR-Green DNA staining.
# Asexual Stage of Arrest Assay. This assay was conducted as previously described.
# [9] = tested on: female gamete; experiment: Dual gamete formation assay, female gametes; format: cell-based; conditions: Plasmodium falciparum; NF54 parasites in a DGFA, 4 replicates
# Procedure: (§1) To determine whether the cyclopropyl carboxamide class has transmission blocking potential we profiled selected analogs in a dual gamete formation assay. In this assay, stage V gametocytes are treated with compound, and gametogenesis is induced by the addition of xanthurenic acid. Male gamete viability is determined by an imaging algorithm measuring motile flagellation, while female viability is measured using an antibody to the female-specific Pfs25 surface marker. […] Collectively, the activity observed against male gametes is consistent with activity observed with other cyt b inhibitors.
# (§2) Dual Gamete Formation Assay. Compounds were evaluated as previously described as a platform run at both Imperial College London and the London School of Hygiene and Tropical Medicine. Briefly, mature stage V gametocytes were exposed to compounds for 48 h at 37 °C in 384 well plates in gametocyte culture medium (RPMI 1640 supplemented with 25 mM HEPES, 50 μg/mL hypoxanthine, 4.8 g/L NaHCO3, 2 mM L-glutamine, 5 % pooled type AB serum, 0.5 % Albumax II (Gibco)) under a 1 % O2/3 % CO2/96 % N2 environment. Gametogenesis was then triggered by the addition of 10 μL ookinete medium (gametocyte culture medium supplemented with 100 μM xanthurenic acid and 0.27 μg/mL Cy3-labelled anti-Pfs25 antibody) to each well at room temperature. Plates were then cooled on a metal block at 4 °C for 4 min to ensure even cooling and then stabilized for a further 4 min at 28 °C. At 20 min post-induction, male gametogenesis was recorded in each well by automated brightfield microscopy using a × 4 objective lens and 1.5 × magnifier ( × 6 effective magnification). Afterward, plates were incubated in the dark at room temperature for 24 h and then female gametogenesis recorded in each well by automated fluorescence microscopy (anti-Pfs25-positive cells). […] All data was evaluated in comparison to the positive and negative controls to calculate percentage inhibition of male and female gametocytes, and dose response analysis and EC50 calculation performed using GraphPad Prism.
# [10] = Human liver microsome stability; format: in vitro ADME; conditions: pooled human liver microsomes
# Procedure: Human Liver Microsome Stability. A solution of the test compounds in phosphate buffer solution (1 μM) was incubated in pooled human liver microsomes (0.5 mg/mL) for 0, 5, 20, 30, 45 and 60 min at 37 °C in the presence and absence of NADPH regeneration system. The reaction was terminated with the addition of ice-cold acetonitrile containing system suitability standard at designated time points. […] The experiment was carried out in duplicate. Verapamil, diltiazem, phenacetin, and imipramine were used as reference standards.
# [11] = eLogD (shake-flask, pH 7.4); format: physicochemical; conditions: 1-octanol/phosphate buffered saline (1:1, v/v), Shake-flask method
# Procedure: eLogD. The LogD (pH 7.4) assay was performed using a miniaturized shake flask method. A solution of a pre-saturated mixture of 1-octanol and phosphate buffered saline (PBS) (1:1, v/v) and the test compound (75 μM) was incubated at 25 °C with constant shaking (850 rpm) for 2 h. After incubation the organic and aqueous phases were separated, and samples of each phase transferred to plate for dilution. The organic phase was diluted to 1000-fold and the aqueous phase was diluted 20-fold. The samples were quantitated using LC-MS/MS. The experiment was carried out in duplicate. Propranolol, amitriptyline, and midazolam were used as reference standards.
# [12] = Human HepG2 growth inhibition assay (Cell TitreGlo, 48 h); format: cell-based; conditions: human, HepG2 cells, HepG2 cell growth inhibition over 48 h
# In short: (§3)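 HepG2 cells (1000/well, DMEM + 10% FCS) exposed 48 h at 37 °C, 5% CO2 to compound from 50 μM top concentration in 1:2 dilutions, 0.5% DMSO final. Viability read by Cell Titer Glo, normalised to DMSO and 10 μM bortezomib; EC50 by four-parameter variable-slope fit.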
# [13] = tested on: male gamete; experiment: Dual gamete formation assay, male gametes; format: cell-based; conditions: Plasmodium falciparum; NF54 parasites in a DGFA, 4 replicates
# Procedure: as §1, §2
# [14] = Rat hepatocyte stability; format: in vitro ADME; conditions: pooled rat hepatocytes
# Procedure: Rat Hepatocyte Stability. A solution of the test compound in Krebs-Henseliet buffer solution (1 μM) was incubated in pooled rat hepatocytes (1 × 10^6 cells/mL) for 0, 15,30,45, 60, 75 and 90 min at 37 °C (5 % CO2, 95 % relative humidity). The reaction was terminated with the addition of ice-cold acetonitrile containing system suitability standard at designated time points. […] The experiment was carried out in duplicate. Diltiazem, 7-ethoxy coumarin, propranolol, and midazolam were used as reference standards.
# [15] = Aqueous solubility (kinetic in PBS, pH 7.4); format: physicochemical; conditions: phosphate buffered saline
# Procedure: Solubility. The solubility assay was performed using a miniaturized shake flask method. A solution of phosphate buffered saline (PBS) and the test compound (200 μM) was incubated at 25 °C with constant shaking (600 rpm) for 2 h. The samples were filtered using a multiscreen solubility filter plate. The filtrate was half diluted in acetonitrile. A five-point linearity curve was prepared in PBS:acetonitrile (1:1, v/v) at 200, 150, 75, 25 and 2.5 μM. Blank, linearity and test samples (n = 2) were transferred to a UV readable plate and the plate was scanned for absorbance. Best fit calibration curves were constructed using the calibration standards and used to determine the test sample solubility. The experiment was carried out in duplicate. Diethylstilbestrol, haloperidol, and diclofenac sodium were used as reference standards.
# [16] = tested on: Pf Dd2 strain with an I22L mutation in the Qi site cyt b; set-up: method as in Nguyen, Dans et al. [8]; conditions: known drug controls; ref Nguyen, Dans et al. [8]; read-out: Pf cyt b mutant strains EC50 Dd2 cyt b(I22L); cited from earlier work
# [17] = tested on: Pf 3D7 3-oxadiazole quinolone resistant strain with a V259L mutation in the Qo site of cyt b; set-up: method as in Nguyen, Dans et al. [8]; conditions: known drug controls; ref Nguyen, Dans et al. [8]; read-out: Pf cyt b mutant strains EC50 3D7 cyt b(V259L); cited from earlier work
# [18] = tested on: human HepG2 cell line; experiment: Human HepG2 growth inhibition assay (Cell TitreGlo, 48 h); format: cell-based; conditions: HepG2 cell growth inhibition over 48 h
# In short: as §3
# [19] = 3D7 / DSM 265, parent 3D7 for resistant populations, LDH assay, 3 experiments (SYBR-green for DSM265)
# [20] = read-out: W466-resistant populations EC50 (SD) #1
# [21] = read-out: W466-resistant populations EC50 (SD) #2
# [22] = read-out: W466-resistant populations EC50 (SD) #3
# [23] = DSM265, read-out: W499-resistant populations EC50 (SD) #2
# [24] = DSM265, read-out: W499-resistant populations EC50 (SD) #3
Compound,effect on malate-dependent oxygen consumption rate (OCR) [1],"EC50 [2, 19] [µM]",EC50 [3] [µM],EC50 [4] [µM],EC50 [5] [µM],"EC50 [6, 20] [µM]","EC50 [6, 21] [µM]","EC50 [6, 22] [µM]","EC50 [7, 23] [µM]","EC50 [7, 24] [µM]",fold shift in EC50 against W499-resistant populations compared to wildtype 3D7 [7] [fold],other results
"O=C1C(O)=C([C@H]2CC[C@H](c3ccc(Cl)cc3)CC2)C(=O)c2ccccc21 [ATQ, atovaquone]",an OCR reduction was detected,0.001,> 10,> 10,0.001,0.002,0.001,0.001,0.004,0.003,–,EC50 ([6]; read-out: EC50 against W466-resistant parasites): 0.001 µM; asexual stage of arrest [8]: arrest at the trophozoite stage
"CCCN(Cc1ccc(C(=O)NC2CC2)cc1)Cc1ccc(C(C)(C)C)cc1 [Compound 107, 4-(((4-(tert-Butyl)benzyl) (propyl)amino)methyl)-N-cyclopropylbenzamide]",–,–,–,–,–,–,–,–,–,–,–,"EC50 [9]: 21.6 µM; microsomal CLint at 1 h, 1 µM [10]: 263 µL/min/mg; logD at 2 h [11]: 4.9; EC50 ([2]; 3D7, 72 h, LDH activity of P. falciparum 3D7 parasites over 72 h, means and SDs, three or more experiments): 0.02 µM; CC50 at 48 h [12]: > 40 µM; EC50 [13]: 0.08 µM; hepatocyte CLint at 1.5 h, 1 µM [14]: 92 µL/min/1e6 cells; solubility at 2 h [15]: 10 µM"
Cc1cc(Nc2ccc(S(F)(F)(F)(F)F)cc2)n2nc(C(C)(F)F)nc2n1 [DSM265],didn't change the basal OCR,0.053,> 10,> 10,0.024,0.019,0.013,0.013,> 1,> 1,> 10,EC50 ([7]; read-out: EC50 against W499-resistant parasites): > 1 µM
COc1cc2[nH]c(C)c(-c3ccc(Oc4ccc(OC(F)(F)F)cc4)cc3)c(=O)c2cc1Cl [ELQ300],–,0.013,–,–,0.021,0.036,0.018,0.02,0.053,0.045,2,EC50 [16]: 0.176 µM; EC50 [17]: 0.012 µM
"N-Cyclopropyl-4-((cyclopropyl(3,4-dimethylbenzyl)amino)methyl)benzamide [Compound 79]",–,–,–,–,–,–,–,–,–,–,–,CC50 [18]: > 40 µM
